What was measured:
[1] = test system: H1 human embryonic stem cells; assay: Screen of CDK, GSK3 and TRK inhibitors with or without GDF-8, SOX17 and cell number (Example 20, Table 17); format: cell-based; conditions: Plate 1; for Cell Number, % of positive control / Sox17 Expression, % of positive control: positive control = Activin A/Wnt3a
Method: Briefly, clusters of H1 human embryonic stem cells were grown on reduced growth factor Matrigel™ (Invitrogen; Cat #356231) coated tissue culture plastic. Cells were passaged using collagenase (Invitrogen; Cat #17104-019) treatment and gentle scraping, washed to remove residual enzyme, and plated with even dispersal at a ratio of 1:1 (surface area) on reduced growth factor […]™ (BD Biosciences; Cat #356231)-coated 96-well black plates (Packard ViewPlates; PerkinElmer; Cat #6005182) using volumes of 100 μl/well. Cells were allowed to attach and then recover log phase growth over a 1 to 3 day time period, feeding daily with MEF conditioned medium supplemented with 8 ng/ml bFGF (R&D Systems; Cat #233-FB). Plates were maintained at 37° C., 5% CO2 in a humidified box throughout the duration of assay.
Screening was conducted using the compounds described in Table 16. […] Compounds were made available as 5 mM stocks in 96-well plate format, solubilized in 100% DMSO (Sigma; Cat #D2650) and stored at −80° C. The library compounds were further diluted to an intermediate concentration of 0.2 mM in 50 mM HEPES (Invitrogen; Cat #15630-080), 20% DMSO and stored at 4° C. Test conditions were performed in triplicate, feeding on alternating days over a four-day assay period. Assay was initiated by aspirating culture medium from each well followed by three washes in PBS (Invitrogen; Cat #14190) to remove residual growth factors. On the first day of assay, test volumes of 200 μl per well were added to each well using DMEM:F12 base medium (Invitrogen; Cat #11330-032) supplemented with 0.5% FCS (HyClone; Cat #SH30070.03) and 100 ng/ml GDF-8 (R&D Systems, Cat #788-G8) plus 2.5 μM compound. A parallel set of test samples were treated in an identical manner but omitting GDF-8 from the medium. On the third day of assay, test volumes of 100 μper well were added to each well using DMEM:F12 base medium supplemented with 2% FCS plus 100 ng/ml GDF-8 (R&D Systems, Cat #788-G8). […] Positive control samples contained the same base medium supplemented with FCS and 100 ng/ml recombinant human activin A (PeproTech; Cat #120-14) throughout the four day assay along with Wnt3a (20 ng/ml) addition on days 1 and 2. Negative control samples contained DMEM:F12 base medium supplemented with FCS.
At the conclusion of four-days of culture, assay plates were washed twice with PBS (Invitrogen; Cat #14190), fixed with 4% paraformaldehyde (Alexis Biochemical; Cat #ALX-350-011) at room temperature for 20 minutes, then washed three times with PBS and permeabilized with 0.5% Triton X-100 (Sigma; Cat #T8760-2) for 20 minutes at room temperature. Cells were washed again three times with PBS and blocked with 4% chicken serum (Invitrogen; Cat #16110082) in PBS for 30 minutes at room temperature. Primary antibody (goat anti-human SOX17; R&D Systems; Cat #AF1924) was diluted 1:100 in 4% chicken serum and added to each well for one hour at room temperature. Alexa Fluor 488 conjugated secondary antibody (chicken anti-goat IgG; Molecular Probes; Cat #AZ1467) was diluted 1:200 in PBS and added to each sample well after washing three times with PBS. To counterstain nuclei, 4 μg/ml Hoechst 33342 (Invitrogen; Cat #H3570) was added for ten minutes at room temperature. Plates were washed once with PBS and left in 100 μl/well PBS for imaging.
Imaging was performed using an IN Cell Analyzer 1000 (GE Healthcare) utilizing the 51008bs dichroic for cells stained with Hoechst 33342 and Alexa Fluor 488. Exposure times were optimized from positive control wells and from untreated negative control wells stained with secondary antibody alone. Images from 15 fields per well were acquired to compensate for any cell loss during the bioassay and subsequent staining procedures. Measurements for total cell number and total SOX17 intensity were obtained from each well using IN Cell Developer Toolbox 1.7 (GE Healthcare) software. […]

[2] = test system: CDK, GSK3, and/or TRK signaling pathways; assay: Primary selectivity of the proprietary small molecules (Table 16); conditions: as listed in Table 17
Method: A subset of 14 proprietary small molecules, known to have specificity for the CDK, GSK3, and/or TRK signaling pathways were evaluated for their potential to differentiate human embryonic stem cells to cells expressing markers characteristic of the definitive endoderm lineage.

[3] = compound in combination with GDF8

Row | SMILES | Cell Number, Average Total Cell Number ([1]; compound alone, No GDF8) | Sox17 Expression, Average Total Intensity ([1]; compound alone, No GDF8) | Cell Number, % of positive control ([1]; compound alone, No GDF8) | Sox17 Expression, % of positive control ([1]; compound alone, No GDF8) | Cell Number, Average Total Cell Number [1, 3] | Sox17 Expression, Average Total Intensity [1, 3] | Cell Number, % of positive control [1, 3] | Sox17 Expression, % of positive control [1, 3] | Compound Selectivity [2] | Compound Selectivity ([2]; GDF8 treatment) | Compound Selectivity ([2]; No GDF8 treatment)
1 | O=C1NCc2cccc(c2)-c2ccnc(n2)Nc2ccc(C(=O)N3CCOCC3)c(c2)CN2CCC[C@@H]12 [Compound 44, (18S)-11-(Morpholin-4-ylcarbonyl)-5,7,14,20,28-pentaazapentacyclo[20.3.1.1˜2,6˜0.1˜8,12˜0.0˜14,18˜]octacosa-1(26), 2(28), 3,5,8(27), 9,11,22,24-nonaen-19-one] | 14 | −1.1E+06 | 0.1 % of positive control | −0.5 % of positive control | 226 | −9.5E+05 | 1.6 % of positive control | −0.4 % of positive control | Selective for GSK |  | 
2 | COc1ccc(Nc2cc(Nc3cc(Cl)ccc3O)ncn2)cc1CCl [Compound 10, 4-Chloro-2-[(6-{[3-(chloromethyl)-4-methoxyphenyl]amino}pyrimidin-4-yl)amino]phenol] | 7011 | −6.6E+05 | 48.4 % of positive control | −0.3 % of positive control | 4627 | 6.6E+07 | 32.0 % of positive control | 28.6 % of positive control | Selective for CDK |  | 
3 | Nc1nccc(-c2cccc(Nc3ncc4nnn(-c5cccc(CNC(=O)C6CC6)c5)c4n3)c2)n1 [Compound 8, N-{[3-(5-{[3-(2-Aminopyrimidin-4-yl)phenyl]amino}-3H-1-[1,2,3]triazolo[4,5-d]pyrimidin-3-yl)phenyl]methyl}cyclopropanecarboxamide] | 13235 | 3.8E+05 | 91.4 % of positive control | 0.2 % of positive control | 5018 | 4.7E+07 | 34.7 % of positive control | 20.4 % of positive control | Selective for GSK |  | 
4 | O=C1COc2cccc(c2)Nc2nccc(n2)Nc2cccc(c2)OCCCN1 [Compound 42, 14,21-Dioxa-2,4,8,18,28-pentaazatetracyclo[20.3.1.1˜3,7˜0.1˜9,13˜]octacosa-1(26), 3(28), 4,6,9(27), 10,12,22,24-nonaen-19-one] | 8700 | −2.4E+05 | 60.1 % of positive control | −0.1 % of positive control | 5686 | 4.9E+07 | 39.3 % of positive control | 21.2 % of positive control | Selective for CDK |  | 
5 | O=C(O)c1cc(Nc2ncc3nnn(-c4ccccc4)c3n2)ccc1F [Compound 7, 2-Fluoro-5-[(3-phenyl-3H-[1,2,3]triazolo[4,5-d]pyrimidin-5-yl)amino]benzoic acid] | 3 | −1.4E+06 | 0.0 % of positive control | −0.6 % of positive control | 5296 | 7.0E+07 | 36.6 % of positive control | 30.4 % of positive control |  | Selective for GSK | Selective for CDK
6 | COCCCNCc1ccc(Nc2nccc(-c3c[nH]c4ncccc34)n2)c(OC)c1 [Compound 12, N-(2-Methoxy-4-{[(3-methoxypropyl)amino]methyl}phenyl)-4-(1H-pyrrolo[2,3-b]pyridin-3-yl)pyrimidin-2-amine] | 13124 | −2.3E+05 | 90.7 % of positive control | −0.1 % of positive control | 31 | −1.3E+06 | 0.2 % of positive control | −0.6 % of positive control |  | Selective for CDK | Selective for GSK
7 | COCCCNS(=O)(=O)c1ccc(Nc2ncc3cnn(C4CCCCC4)c3n2)cc1 [Compound 9, 4-[(1-Cyclohexyl-1H-pyrazolo[3,4-d]pyrimidin-6-yl)amino]-N-[3-(methyloxy)propyl]benzenesulfonamide] | 7156 | −4.2E+04 | 49.4 % of positive control | 0.0 % of positive control | 4816 | 4.5E+07 | 33.3 % of positive control | 19.4 % of positive control | Selective for CDK |  | 
8 | COc1ccc2cc1OCCCC(=O)N(C)CC1CN(Cc3c[nH]c4ncnc(c34)N2)C1 [Compound 45, 10-Methoxy-17-methyl-2,14,15,17,18,19,20,22-octahydro-6H-1-19.21 methano-7,11-(metheno)-12-oxa-2,3,5,6,17,21-hexaazacycloicosa[1,2,3-cd]inden-16(13H)-one] | 8857 | −4.5E+05 | 61.2 % of positive control | −0.2 % of positive control | 9540 | 1.1E+08 | 65.9 % of positive control | 47.9 % of positive control | Selective for Trk |  | 

Source: patent US9593305B2, “Differentiation of pluripotent stem cells” (Janssen Biotech, Inc., priority 2008, dated 2017)
